Test results from ChEMBL document CHEMBL1201862, “PubChem BioAssay data set” (2004).
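Five concentrations, 48 hours, 96-well plates. The concentration for 50% growth inhibition is given as GI50.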 Calls of active or inactive are those of the source. No stated cut-off is given here; in the data, active = GI50 up to about 1.1 µM and inactive = higher.

Columns and labels:
Assay in all cases: NCI anticancer screen, dose series, 48 h
[1] = system: MCF7
[2] = system: MDA-MB-435
[3] = system: EKVX
[4] = system: SF-295
[5] = system: SK-OV-3
[6] = system: SW-620
[7] = system: HCT-15
[8] = system: SF-539
[9] = system: OVCAR-3
[10] = system: U-251
[11] = system: NCI/ADR-RES
[12] = system: Hs-578T
[13] = system: HOP-62
[14] = system: SK-MEL-5
[15] = system: SF-268
[16] = system: HCC 2998
[17] = system: OVCAR-8
[18] = system: HT-29
[19] = system: T47D
[20] = system: SR

SMILES | GI50 [1] | GI50 [2] | GI50 [3] | GI50 [4] | GI50 [5] | GI50 [6] | GI50 [7] [µM] | GI50 [8] | GI50 [9] | GI50 [10] | GI50 [11] | GI50 [12] | GI50 [13] | GI50 [14] | GI50 [15] | GI50 [16] | GI50 [17] | GI50 [18] | GI50 [19] | GI50 [20]
O=C1c2ccccc2C(=O)c2c(NC(=O)c3ccc4c5c(ncnc35)-c3ccccc3C4=O)cccc21 | > 100 µM (inactive) | > 100 µM (inactive) | > 100 µM (inactive) | 23.4 µM (inactive) | 23.2 µM (inactive) | > 100 µM (inactive) | > 100 | 52.4 µM (inactive) | 37.1 µM (inactive) | 31 µM (inactive) | > 100 µM (inactive) | 57.1 µM (inactive) | 14.7 µM (inactive) | > 100 µM (inactive) | 97.5 µM (inactive) | > 100 µM (inactive) | > 100 µM (inactive) | > 100 µM (inactive) | > 100 µM (inactive) | 91.4 µM (inactive)
CN(CCN1CCCC1)C1CCc2cc(Cl)c(Cl)cc2C1 (centres undefined) | 14.8 µM (inactive) | 14.4 µM (inactive) | 20.6 µM (inactive) | 15.7 µM (inactive) | 17.5 µM (inactive) | 23.9 µM (inactive) | 13.2 | 16.1 µM (inactive) | 17.1 µM (inactive) | 16.1 µM (inactive) | 12.4 µM (inactive) | 29.9 µM (inactive) | 17.4 µM (inactive) | 11.1 µM (inactive) | 17.1 µM (inactive) | 5.47 µM (inactive) | 16.2 µM (inactive) | 10.4 µM (inactive) | 6.37 µM (inactive) | 20.5 µM (inactive)
O=C(O)c1cc2c(cc1S(=O)(=O)O)C1C(C3C2C2(Cl)C(Cl)=C(Cl)C3(Cl)C2(Cl)Cl)C2(Cl)C(Cl)=C(Cl)C1(Cl)C2(Cl)Cl (centres undefined) | 34.8 µM (inactive) | 41.9 µM (inactive) | 30.2 µM (inactive) | 23.2 µM (inactive) | 39.9 µM (inactive) | 37.2 µM (inactive) | 45 | 25.4 µM (inactive) | 22.9 µM (inactive) | 38.3 µM (inactive) | > 100 µM (inactive) | 45.2 µM (inactive) | 26.2 µM (inactive) | 34.7 µM (inactive) | 58.7 µM (inactive) | 20.8 µM (inactive) | 54.7 µM (inactive) | 21.8 µM (inactive) | 33.2 µM (inactive) | 24.7 µM (inactive)
CC(=O)OC(Cc1cc(C=C(C(F)(F)F)C(F)(F)F)cc(C)n1)(C(F)(F)F)C(F)(F)F | 0.14 µM (active) | 1.48 µM (inactive) | 2.01 µM (inactive) | 2.82 µM (inactive) | 19.5 µM (inactive) | 1.28 µM (inactive) | 0.975 | 2.06 µM (inactive) | 1.36 µM (inactive) | 1.55 µM (inactive) | 2.28 µM (inactive) | 1.95 µM (inactive) | 1.79 µM (inactive) | 1.49 µM (inactive) | 1.74 µM (inactive) | 5.2 µM (inactive) | 1.04 µM (active) | 0.55 µM (active) | 1.9 µM (inactive) | 0.352 µM (active)
CC(C)C(=O)/C=C/c1ccc(Cl)cc1Cl | 3.62 µM (inactive) | 2.99 µM (inactive) | 16.8 µM (inactive) | 16.9 µM (inactive) | 19.6 µM (inactive) | 3.1 µM (inactive) | 12.2 | 18.4 µM (inactive) | 4.63 µM (inactive) | 12.6 µM (inactive) | 20.1 µM (inactive) | 3.51 µM (inactive) | 18.5 µM (inactive) | 14.5 µM (inactive) | 6.93 µM (inactive) | 16.4 µM (inactive) | 10.5 µM (inactive) | 3.99 µM (inactive) | 13 µM (inactive) | 6.61 µM (inactive)
O=C1Cc2c(-c3ccccc3)cc(-c3ccc4ccccc4c3)nc2-c2ccccc2N1 | 13.9 µM (inactive) | 17.2 µM (inactive) | 7.16 µM (inactive) | 17.8 µM (inactive) | 6.64 µM (inactive) | 29.2 µM (inactive) | 37.8 | 4.7 µM (inactive) | 8.05 µM (inactive) | 16.4 µM (inactive) | 13.2 µM (inactive) | 2.96 µM (inactive) | 7.52 µM (inactive) | 4.74 µM (inactive) | 4.29 µM (inactive) | 22.6 µM (inactive) | 1.46 µM (inactive) | 3.31 µM (inactive) | 18 µM (inactive) | 39.3 µM (inactive)
COc1cc2c3cc1Oc1c(OC)c(OC)cc4c1C(Cc1ccc(O)c(c1)-c1cc(ccc1OC)CC3N(C)CC2)N(C)CC4 (centres undefined) | 16.5 µM (inactive) | 23.6 µM (inactive) | 25.6 µM (inactive) | 16.5 µM (inactive) | 72.8 µM (inactive) | 22.3 µM (inactive) | 6.07 | 7.08 µM (inactive) | 21.6 µM (inactive) | 28.1 µM (inactive) | 25.9 µM (inactive) | 21.3 µM (inactive) | – | 14.8 µM (inactive) | 19.1 µM (inactive) | 17.2 µM (inactive) | 17.4 µM (inactive) | 6.92 µM (inactive) | 24.2 µM (inactive) | 0.659 µM (active)
COC(=O)C1=C(C(=O)Nc2cccnc2Cl)N(c2ccc(OC)cc2[N+](=O)[O-])C(c2ccc(C)cc2)=CC1c1ccc(OC)cc1OC (centres undefined) | 2.15 µM (inactive) | 5.64 µM (inactive) | 21.9 µM (inactive) | 23.2 µM (inactive) | 23.7 µM (inactive) | 4.66 µM (inactive) | 4.27 | 4.76 µM (inactive) | 8.57 µM (inactive) | 6.41 µM (inactive) | 17.6 µM (inactive) | 25.3 µM (inactive) | 23.3 µM (inactive) | 10 µM (inactive) | 24.6 µM (inactive) | 8.61 µM (inactive) | 8.79 µM (inactive) | 3.89 µM (inactive) | 10 µM (inactive) | 2.85 µM (inactive)
CC(C)(C)C1CCC2c3c([nH]c4ccccc34)C3C(=O)N(c4ccc5c(c4)C(=O)c4ccccc4C5=O)C(=O)C3C2C1 (centres undefined) | > 100 µM (inactive) | > 100 µM (inactive) | > 100 µM (inactive) | > 100 µM (inactive) | > 100 µM (inactive) | > 100 µM (inactive) | > 100 | > 100 µM (inactive) | > 100 µM (inactive) | > 100 µM (inactive) | > 100 µM (inactive) | > 100 µM (inactive) | > 100 µM (inactive) | > 100 µM (inactive) | > 100 µM (inactive) | > 100 µM (inactive) | > 100 µM (inactive) | > 100 µM (inactive) | > 100 µM (inactive) | > 100 µM (inactive)
NS(=O)(=O)c1nc(S(=O)(=O)O)c2[nH]cnc2n1 | > 100 µM (inactive) | > 100 µM (inactive) | > 100 µM (inactive) | > 100 µM (inactive) | > 100 µM (inactive) | > 100 µM (inactive) | > 100 | > 100 µM (inactive) | > 100 µM (inactive) | > 100 µM (inactive) | > 100 µM (inactive) | > 100 µM (inactive) | > 100 µM (inactive) | > 100 µM (inactive) | > 100 µM (inactive) | – | > 100 µM (inactive) | > 100 µM (inactive) | > 100 µM (inactive) | > 100 µM (inactive)
O=C(O)/C=C/c1c2ccc(=O)c(O)c-2oc2c(O)c(O)ccc12 | 17.2 µM (inactive) | 17.4 µM (inactive) | 24.9 µM (inactive) | 24.4 µM (inactive) | 98.4 µM (inactive) | 20.7 µM (inactive) | 61.9 | – | 45 µM (inactive) | 16.1 µM (inactive) | 65.3 µM (inactive) | 58.6 µM (inactive) | 23.4 µM (inactive) | 54 µM (inactive) | > 100 µM (inactive) | > 100 µM (inactive) | 40.1 µM (inactive) | 63.7 µM (inactive) | > 100 µM (inactive) | 31.8 µM (inactive)
O=C(CP(=O)(c1ccccc1)c1ccccc1)c1cccc(C(=O)CP(=O)(c2ccccc2)c2ccccc2)c1 | 98.6 µM (inactive) | > 100 µM (inactive) | 56.8 µM (inactive) | 14.6 µM (inactive) | 23.3 µM (inactive) | > 100 µM (inactive) | > 100 | 29.7 µM (inactive) | – | > 10 µM (inactive) | > 100 µM (inactive) | 25.6 µM (inactive) | 34.4 µM (inactive) | > 100 µM (inactive) | 30.2 µM (inactive) | > 100 µM (inactive) | 43.1 µM (inactive) | > 100 µM (inactive) | 76 µM (inactive) | > 100 µM (inactive)
Cc1nc2c(-c3ccccc3)[nH]c(C)c2c(=O)o1 | 1.39 µM (inactive) | 46.2 µM (inactive) | > 100 µM (inactive) | 79.6 µM (inactive) | 49.9 µM (inactive) | > 100 µM (inactive) | 30.8 | 56.5 µM (inactive) | – | 34.9 µM (inactive) | > 100 µM (inactive) | > 100 µM (inactive) | 33.3 µM (inactive) | 13.1 µM (inactive) | 15.5 µM (inactive) | 57.5 µM (inactive) | 41.5 µM (inactive) | 39.4 µM (inactive) | 44.2 µM (inactive) | > 100 µM (inactive)
CCc1c(-c2ccc(OC)cc2)c(=O)oc2cc(O)ccc12 | 32.7 µM (inactive) | 27.6 µM (inactive) | 29.4 µM (inactive) | 35.6 µM (inactive) | – | 51.3 µM (inactive) | 25.9 | 44.1 µM (inactive) | 28.4 µM (inactive) | 38.4 µM (inactive) | 22.1 µM (inactive) | 30.7 µM (inactive) | 54 µM (inactive) | 14.8 µM (inactive) | 41.5 µM (inactive) | 72.3 µM (inactive) | 49.1 µM (inactive) | 40.7 µM (inactive) | 30.6 µM (inactive) | 16.7 µM (inactive)
